Measurements: patent US20240287076A1, “COMPOUNDS FOR TARGETING DEGRADATION OF BRUTON'S TYROSINE KINASE” (BIOGEN MA INC., priority 2021, published 2024)

What follows are compounds tested against T1, BTK (Homo sapiens, UniProt Q06187) (assay: BTK degradation assay using the HiBiT Method (Nano-Glo HiBiT Lytic Assay, GM01501.3 cells)). Settings: HiBiT Degradation on GM01501.3 BTK @ 6 hours.
T1 construct: The GM01501.3 cell line endogenously expresses BTK with a HiBiT fusion tag via CRISPR knock-in at its C-terminal region; endogenous in cells; host or cells: GM01501.3 (GM01501 cells engineered by CRISPR knock-in of HiBiT at the BTK locus)
T1 sequence (Q06187 whole entry, the tested form may be a part): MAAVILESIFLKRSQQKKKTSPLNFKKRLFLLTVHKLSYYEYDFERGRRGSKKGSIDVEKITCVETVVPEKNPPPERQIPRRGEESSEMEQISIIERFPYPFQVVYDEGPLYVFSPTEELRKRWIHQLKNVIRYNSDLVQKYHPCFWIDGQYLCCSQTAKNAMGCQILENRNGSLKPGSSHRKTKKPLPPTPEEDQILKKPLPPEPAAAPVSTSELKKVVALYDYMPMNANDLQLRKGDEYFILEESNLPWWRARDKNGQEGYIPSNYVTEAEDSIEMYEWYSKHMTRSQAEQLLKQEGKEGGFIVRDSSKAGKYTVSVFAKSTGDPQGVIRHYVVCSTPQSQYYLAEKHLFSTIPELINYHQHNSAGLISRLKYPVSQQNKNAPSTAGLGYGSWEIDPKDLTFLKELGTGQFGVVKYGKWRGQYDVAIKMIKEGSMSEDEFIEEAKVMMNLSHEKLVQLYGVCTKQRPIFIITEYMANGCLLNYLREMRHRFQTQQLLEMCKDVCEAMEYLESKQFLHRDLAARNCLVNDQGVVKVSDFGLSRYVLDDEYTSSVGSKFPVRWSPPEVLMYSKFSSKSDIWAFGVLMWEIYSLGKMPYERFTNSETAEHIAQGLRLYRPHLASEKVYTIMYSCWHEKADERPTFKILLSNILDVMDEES
Format: cell-based
Method: Selected compounds were tested in a BTK degradation assay using the HiBiT Method. Park Memorial Institute (RPM1) 1640 Medium with phenol red, L-Glutamine, Sodium Pyruvate, and fetal bovine serum (FBS) were purchased from Gibco (Grand Island, NY, USA). Nano-Glo® HiBiT Lytic Assay System was purchased from Promega (Madison, WI, USA). GM01501 cells were obtained from the NIGMS Human Genetic Cell Repository at the Coriell Institute for Medical Research. The GM01501.3 cell line endogenously expresses BTK with a HiBiT fusion tag via CRISPR knock-in at its C-terminal region. It was engineered by electroporation with the Neon Transfection System (Themo Fisher Scientific), according to manufacturer indications. Electroporation conditions: 1 pulse of 1,350 V for 30 ms for 0.5×10_6 cells. Cell culture flasks and 384-well microplates were acquired from VWR (Radnor, PA, USA). BTK degradation was evaluated by quantification of luminescent signal using Nano-Glo® HiBiT Lytic Assay kit. Test compounds were added to the 384-well plate from a top concentration of 10 μM with 11 points, half log titration in duplicates. GM01501.3 cells were added into 384-well plates at a cell density of 10,000 cells per well in a total volume of 30 μl. The plates were kept at 37° C. with 5% CO2 for 6 hours. Negative control wells included cells treated with DMSO only and positive control wells included only growing media, without Nano-Glo® HiBiT Lytic reagent. After a 6-hour incubation, Nano-Glo® HiBiT Lytic Assay reagent was added to the cells following manufacturer indications. Luminescence was acquired on EnVision™ Multilabel Reader (PerkinElmer, Santa Clara, CA, USA). […] “++++” represents a DC50 value of less than 100 nM. “+++” represents a DC50 value of 100 nM-500 nM. “++” represents a DC50 value of 500 nM-1000 nM. “+” represents a DC50 value of greater than 1000 nM.
`Cc1cc(-c2ncnn3cc(-c4ccc(CN5CCC(c6ccc(NC7CCC(=O)NC7=O)cc6)CC5)cc4)cc23)ccc1CNC(=O)c1noc(C(C)(C)C)n1` (racemic) [Example 1, 5-tert-butyl-N-[[4-[6-[4-[[4-[4-[(2,6-dioxo-3-piperidyl)amino]phenyl]-1-piperidyl]methyl]phenyl]pyrrolo[2,1-f][1,2,4]triazin-4-yl]-2-methyl-phenyl]methyl]-1,2,4-oxadiazole-3-carboxamide] was tested, and the DC50 was under 100 nM.
Work on `CC(C)(C)c1nc(C(=O)NCc2ccc(-c3ncnn4cc(CCCCN5CCC(c6ccc(C7(C)CCC(=O)NC7=O)cc6)CC5)cc34)cc2F)no1` (single isomer, unassigned) [Example 141, 5-tert-butyl-N-[[2-fluoro-4-[6-[4-[4-[4-(3-methyl-2,6-dioxo-3-piperidyl)phenyl]-1-piperidyl]butyl]pyrrolo[2,1-f][1,2,4]triazin-4-yl]phenyl]methyl]-1,2,4-oxadiazole-3-carboxamide] yielded a DC50 of under 100 nM.
`CO[C@H]1CN(CCc2cc3c(-c4ccc(CNC(=O)c5noc(C(C)(C)C)n5)c(C)c4)ncnn3c2)CC[C@H]1c1ccc2c(N3CCC(=O)NC3=O)nn(C)c2c1` (single isomer, unassigned) [Example 262] showed a DC50 of under 100 nM.
With `Cc1cc(-c2ncnn3cc(CCN4CC[C@H](c5ccc6c(N7CCC(=O)NC7=O)nn(C)c6c5)C4)cc23)ccc1CNC(=O)c1noc(C(C)(C)C)n1` (single isomer, unassigned) [Example 265] the DC50 was under 100 nM.
In the case of `Cc1cc(-c2ncnn3cc(CCN4CC[C@@H](c5ccc6c(N7CCC(=O)NC7=O)nn(C)c6c5)C4)cc23)ccc1CNC(=O)c1noc(C(C)(C)C)n1` (single isomer, unassigned) [Example 266], the DC50 is reported as under 100 nM.
For `Cc1cc(-c2ncnn3cc(CC[C@@H](F)CN4CCC(c5ccc(C6CCC(=O)NC6=O)cc5)CC4)cc23)ccc1CNC(=O)c1noc(C(C)(C)C)n1` (single isomer, unassigned) [Example 286], the DC50 was under 100 nM.
Compound `Cc1cc(-c2ncnn3cc(CC[C@@H](F)CN4CCN(c5ccc(C6CCC(=O)NC6=O)cn5)CC4)cc23)ccc1CNC(=O)c1noc(C(C)(C)C)n1` (single isomer, unassigned) [Example 287] has a DC50 of under 100 nM.
`Cc1cc(-c2ncnn3cc(OCCCN4CCC[C@@H](c5ccc6c(N7CCC(=O)NC7=O)nn(C)c6c5)C4)cc23)ccc1CNC(=O)c1noc(C(C)(C)C)n1` (single isomer, unassigned) [Example 292] gave a DC50 of under 100 nM.
For `Cc1cc(-c2ncnn3cc(-c4ccc(CN5CCC(c6ccc(NC7CCC(=O)NC7=O)cc6)CC5)cc4)cc23)ccc1CNC(=O)c1noc(C(C)(C)C)n1` (single isomer, unassigned; isomer 1) [Example 2, 5-tert-butyl-N-[[4-[6-[4-[[4-[4-[(2,6-dioxo-3-piperidyl)amino]phenyl]-1-piperidyl]methyl]phenyl]pyrrolo[2,1-f][1,2,4]triazin-4-yl]-2-methyl-phenyl]methyl]-1,2,4-oxadiazole-3-carboxamide isomer 1], the DC50 was under 100 nM.
In the case of `Cc1cc(-c2ncnn3cc(-c4ccc(CN5CCC(c6ccc(NC7CCC(=O)NC7=O)cc6)CC5)cc4)cc23)ccc1CNC(=O)c1noc(C(C)(C)C)n1` (single isomer, unassigned; isomer 2) [Example 3, 5-tert-butyl-N-[[4-[6-[4-[[4-[4-[(2,6-dioxo-3-piperidyl)amino]phenyl]-1-piperidyl]methyl]phenyl]pyrrolo[2,1-f][1,2,4]triazin-4-yl]-2-methyl-phenyl]methyl]-1,2,4-oxadiazole-3-carboxamide isomer 2], the DC50 is reported as under 100 nM.
Compound `Cc1cc(-c2ncnn3cc(-c4ccc(CN5CCC(c6ccc(C7CCC(=O)NC7=O)cc6)CC5)cc4)cc23)ccc1CNC(=O)c1noc(C(C)(C)C)n1` (centres unmarked) [Example 4, 5-tert-butyl-N-[[4-[6-[4-[[4-[4-(2,6-dioxo-3-piperidyl)phenyl]-1-piperidyl]methyl]phenyl]pyrrolo[2,1-f][1,2,4]triazin-4-yl]-2-methyl-phenyl]methyl]-1,2,4-oxadiazole-3-carboxamide] has a DC50 of under 100 nM.
`Cc1cc(-c2ncnn3cc(-c4ccc(CN5CCC(c6ccc(NC7CCC(=O)NC7=O)cc6)CC5(C)C)cc4)cc23)ccc1CNC(=O)c1noc(C(C)(C)C)n1` (centres unmarked) [Example 5, 5-tert-butyl-N-[[4-[6-[4-[[4-[4-[(2,6-dioxo-3-piperidyl)amino]phenyl]-2,2-dimethyl-1-piperidyl]methyl]phenyl]pyrrolo[2,1-f][1,2,4]triazin-4-yl]-2-methyl-phenyl]methyl]-1,2,4-oxadiazole-3-carboxamide] gave a DC50 of under 100 nM.
For `Cc1cc(-c2ncnn3cc(-c4ccc(CN5C6CCC5CC(c5ccc(NC7CCC(=O)NC7=O)cc5)C6)cc4)cc23)ccc1CNC(=O)c1noc(C(C)(C)C)n1` (centres unmarked) [Example 6, 5-tert-butyl-N-[[4-[6-[4-[[3-[4-[(2,6-dioxo-3-piperidyl)amino]phenyl]-8-azabicyclo[3.2.1]octan-8-yl]methyl]phenyl]pyrrolo[2,1-f][1,2,4]triazin-4-yl]-2-methyl-phenyl]methyl]-1,2,4-oxadiazole-3-carboxamide], the DC50 was under 100 nM.
For `Cc1cc(-c2ncnn3cc(-c4ccc(CN5CCCC(c6ccc(NC7CCC(=O)NC7=O)cc6)C5)cc4)cc23)ccc1CNC(=O)c1noc(C(C)(C)C)n1` (centres unmarked) [Example 7, 5-tert-butyl-N-[[4-[6-[4-[[3-[4-[(2,6-dioxo-3-piperidyl)amino]phenyl]-1-piperidyl]methyl]phenyl]pyrrolo[2,1-f][1,2,4]triazin-4-yl]-2-methyl-phenyl]methyl]-1,2,4-oxadiazole-3-carboxamide], the DC50 was under 100 nM.
`Cc1cc(-c2ncnn3cc(-c4ccc(CN5CCCC(c6ccc(C7CCC(=O)NC7=O)cc6)C5)cc4)cc23)ccc1CNC(=O)c1noc(C(C)(C)C)n1` (centres unmarked) [Example 8, 5-tert-butyl-N-[[4-[6-[4-[[3-[4-(2,6-dioxo-3-piperidyl)phenyl]-1-piperidyl]methyl]phenyl]pyrrolo[2,1-f][1,2,4]triazin-4-yl]-2-methyl-phenyl]methyl]-1,2,4-oxadiazole-3-carboxamide] was tested, and the DC50 was 100 to 500 nM.
In the case of `Cc1cc(-c2ncnn3cc(-c4ccc(CN5CCC(c6ccc(C7CCC(=O)NC7=O)cc6F)CC5)cc4)cc23)ccc1CNC(=O)c1noc(C(C)(C)C)n1` (centres unmarked) [Example 9, 5-tert-butyl-N-[[4-[6-[4-[[4-[4-(2,6-dioxo-3-piperidyl)-2-fluoro-phenyl]-1-piperidyl]methyl]phenyl]pyrrolo[2,1-f][1,2,4]triazin-4-yl]-2-methyl-phenyl]methyl]-1,2,4-oxadiazole-3-carboxamide], the DC50 is reported as under 100 nM.
In the case of `Cc1cc(-c2ncnn3cc(-c4ccc(CN5CCC(c6c(F)cc(C7CCC(=O)NC7=O)cc6F)CC5)cc4)cc23)ccc1CNC(=O)c1noc(C(C)(C)C)n1` (centres unmarked) [Example 10, 5-tert-butyl-N-[[4-[6-[4-[[4-[4-(2,6-dioxo-3-piperidyl)-2,6-difluoro-phenyl]-1-piperidyl]methyl]phenyl]pyrrolo[2,1-f][1,2,4]triazin-4-yl]-2-methyl-phenyl]methyl]-1,2,4-oxadiazole-3-carboxamide], the DC50 is reported as under 100 nM.
Work on `Cc1cc(-c2ncnn3cc(-c4ccc(CN(C)CCCc5ccc(NC6CCC(=O)NC6=O)cc5)cc4)cc23)ccc1CNC(=O)c1noc(C(C)(C)C)n1` (centres unmarked) [Example 11, 5-tert-butyl-N-[[4-[6-[4-[[3-[4-[(2,6-dioxo-3-piperidyl)amino]phenyl]propyl-methyl-amino]methyl]phenyl]pyrrolo[2,1-f][1,2,4]triazin-4-yl]-2-methyl-phenyl]methyl]-1,2,4-oxadiazole-3-carboxamide] yielded a DC50 of under 100 nM.
Compound `Cc1cc(-c2ncnn3cc(-c4ccc(CN5CCC(c6cnc(NC7CCC(=O)NC7=O)cn6)CC5)cc4)cc23)ccc1CNC(=O)c1noc(C(C)(C)C)n1` (centres unmarked) [Example 12, 5-tert-butyl-N-[[4-[6-[4-[[4-[5-[(2,6-dioxo-3-piperidyl)amino]pyrazin-2-yl]-1-piperidyl]methyl]phenyl]pyrrolo[2,1-f][1,2,4]triazin-4-yl]-2-methyl-phenyl]methyl]-1,2,4-oxadiazole-3-carboxamide] has a DC50 of under 100 nM.
`Cc1cc(-c2ncnn3cc(-c4ccc(CN5CCC(c6ccc(NC7CCC(=O)NC7=O)nc6)CC5)cc4)cc23)ccc1CNC(=O)c1noc(C(C)(C)C)n1` (centres unmarked) [Example 13, 5-tert-butyl-N-[[4-[6-[4-[[4-[6-[(2,6-dioxo-3-piperidyl)amino]-3-pyridyl]-1-piperidyl]methyl]phenyl]pyrrolo[2,1-f][1,2,4]triazin-4-yl]-2-methyl-phenyl]methyl]-1,2,4-oxadiazole-3-carboxamide] gave a DC50 of under 100 nM.
